Key:
[1] = target: T1, NTF2L domain of G3BP1 (residues 1–138) (Homo sapiens, UniProt Q13283); test: Isothermal titration calorimetry (ITC) of peptides with NTF2L; format: binding; settings: for n, molar ratio: 20°C
T1 construct: 6xHis tag with TEV protease cleavage site (N, cleaved yes); made in house; host or cells: Escherichia coli BL21 (DE3)

NTF2L domain of G3BP1 [2] = test: SEC-MALS of peptide–NTF2L complexes; format: physicochemical, human; settings: ~2 mg/mL in PBS pH 7.4, Superdex 200 Increase 10/300 GL; for M.W., molecular weight of the peptide–NTF2L complex: 0.5 mL/min, value given in figure
NTF2L domain of G3BP1 [3] = test: Size-exclusion chromatography (SEC) of NTF2L incubated with peptide: high-order oligomer formation; format: binding, human; settings: peptide mixed with NTF2L, incubated at 4°C overnight, Superdex 200 Increase 10/300 GL
endogenous G3BP1 = test: Co-immunoprecipitation with endogenous G3BP1 in HEK293T cells; format: cell-based; settings: Co-IP, Flag magnetic beads, HEK293T cells lysed 36 h after transfection (3xFlag-mCherry constructs)
Procedure: HEK293T cells were seeded into a six-well cell culture plate and then transfected with the recombinant plasmids using TransIntro PEI Transfection Reagent (TransGen Biotech, FT401-01). Thirty-six hours after transfection, the cells were lysed with cell lysis buffer (Beyotime, P0013J) supplemented with proteinase inhibitor phenylmethylsulfonyl fluoride (Solarbio, P8340). Cell lysates were then centrifuged, and the supernatants were immunoprecipitated with Flag magnetic beads (LABLEAD, PFM025). Beads were washed three times with washing buffer (50 mM Tris-HCl, 500 mM NaCl, 0.1% Triton X-100, 1 mM EDTA, pH 7.5). Cell lysates or immunoprecipitants were analyzed with immunoblotting.
The proteins were then transferred to polyvinylidene fluoride membranes. Membranes were blocked for 4 h with 5% non-fat dry milk solution in Tris-buffered saline containing 0.1% Tween-20 (TBST) and then incubated with primary antibodies mouse anti-G3BP1 (Santa Cruz, sc-365338), mouse anti-Flag (Proteintech, 66008-4-Ig), and rabbit anti-β-actin (Proteintech, 81115-1-RR) overnight at 4°C. The membranes were washed with TBST and then incubated with the corresponding secondary antibodies. Proteins were visualized by SuperKine West Femto Maximum Sensitivity Substrate according to the manufacturer’s instruction (Abbkine, BMU102).

lung cancer cell = settings: through targeting G3BP1; cited from earlier work
SARS-CoV-2 = settings: cited from earlier work

T1 sequence (Q13283 1-138): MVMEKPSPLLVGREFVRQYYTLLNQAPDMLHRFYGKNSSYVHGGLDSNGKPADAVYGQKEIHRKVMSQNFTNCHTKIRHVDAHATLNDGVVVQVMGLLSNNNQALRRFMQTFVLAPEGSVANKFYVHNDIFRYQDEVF

In the case of CC[C@H](C)[C@H](NC(=O)[C@H](CCC(=O)O)NC(=O)CNC(=O)[C@H](CC(=O)O)NC(=O)[C@H](CC(N)=O)NC(=O)[C@H](Cc1ccccc1)NC(=O)[C@H](CC(=O)O)NC(=O)CNC(=O)[C@H](Cc1ccccc1)NC(=O)[C@@H](NC(=O)[C@@H](NC(=O)[C@@H]1CCCN1C(=O)[C@H](Cc1ccccc1)NC(=O)[C@@H](NC(=O)[C@H](CCC(=O)O)NC(=O)[C@H](CO)NC(=O)CNC(=O)[C@H](CC(C)C)NC(=O)[C@@H]1CCCN1C(=O)CN)[C@@H](C)O)[C@@H](C)CC)[C@@H](C)O)C(=O)N[C@@H](CCC(=O)O)C(=O)N[C@@H](CO)C(=O)N[C@@H](CC(C)C)C(=O)N[C@@H](CO)C(=O)N[C@@H](CO)C(=O)N[C@@H](CCC(=O)O)C(=O)N[C@@H](CC(C)C)C(=O)N[C@@H](CC(C)C)C(=O)N[C@H](C(=O)N[C@@H](Cc1ccccc1)C(=O)NCC(=O)N[C@@H](CC(=O)O)C(=O)N[C@@H](Cc1ccccc1)C(=O)N[C@@H](CC(C)C)C(=O)N1CCC[C@H]1C(=O)NCC(=O)N[C@@H](C)C(=O)N[C@H](C(=O)N[C@@H](C)C(=O)N[C@@H](CC(=O)O)C(=O)N[C@@H](CC(C)C)C(=O)N[C@H](C(=O)N[C@@H](CC(=O)O)C(=O)N[C@@H](CO)C(=O)N[C@@H](CC(=O)O)C(=O)N[C@@H](Cc1c[nH]c2ccccc12)C(=O)N[C@@H](CO)C(=O)N[C@H](C(=O)N[C@@H](Cc1c[nH]cn1)C(=O)N[C@@H](Cc1c[nH]cn1)C(=O)N[C@@H](Cc1c[nH]cn1)C(=O)N[C@@H](Cc1c[nH]cn1)C(=O)N[C@@H](Cc1c[nH]cn1)C(=O)N[C@@H](Cc1c[nH]cn1)C(=O)O)[C@@H](C)O)[C@@H](C)O)C(C)C)[C@@H](C)O [CHIKV-43 mut], the “n, molar ratio” value ([1]; HEPES buffer pH 7.5, 200 µM peptide injected into 40 µM NTF2L) is reported as 0.6 ± 0.02, the “fold reduction of binding affinity with NTF2L” value ([1]; compared to that of CHIKV-43 with NTF2L) is reported as ~ 15 fold and the “M.W., molecular weight of the peptide–NTF2L complex” value (NTF2L domain of G3BP1 [2]) is reported as 58.7 ± 0.42 kDa.

In the case of CC[C@H](C)[C@H](NC(=O)[C@H](CCC(=O)O)NC(=O)CNC(=O)[C@H](CC(=O)O)NC(=O)[C@H](CC(N)=O)NC(=O)[C@H](Cc1ccccc1)NC(=O)[C@H](CC(=O)O)NC(=O)CNC(=O)[C@H](Cc1ccccc1)NC(=O)[C@@H](NC(=O)[C@@H](NC(=O)[C@@H]1CCCN1C(=O)[C@H](Cc1ccccc1)NC(=O)[C@@H](NC(=O)[C@H](CCC(=O)O)NC(=O)[C@H](CO)NC(=O)CNC(=O)[C@H](CC(C)C)NC(=O)[C@@H]1CCCN1C(=O)CN)[C@@H](C)O)[C@@H](C)CC)[C@@H](C)O)C(=O)N[C@@H](CCC(=O)O)C(=O)N[C@@H](CO)C(=O)N[C@@H](CC(C)C)C(=O)N[C@@H](CO)C(=O)N[C@@H](CO)C(=O)N[C@@H](CCC(=O)O)C(=O)N[C@@H](CC(C)C)C(=O)N[C@@H](CC(C)C)C(=O)N[C@H](C(=O)N[C@@H](Cc1ccccc1)C(=O)NCC(=O)N[C@@H](CC(=O)O)C(=O)N[C@@H](Cc1ccccc1)C(=O)N[C@@H](CC(C)C)C(=O)N1CCC[C@H]1C(=O)NCC(=O)N[C@@H](CCC(=O)O)C(=O)N[C@H](C(=O)N[C@@H](CC(=O)O)C(=O)N[C@@H](CC(=O)O)C(=O)N[C@@H](CC(C)C)C(=O)N[C@H](C(=O)N[C@@H](CC(=O)O)C(=O)N[C@@H](CO)C(=O)N[C@@H](CC(=O)O)C(=O)N[C@@H](Cc1c[nH]c2ccccc12)C(=O)N[C@@H](CO)C(=O)N[C@H](C(=O)N[C@@H](Cc1c[nH]cn1)C(=O)N[C@@H](Cc1c[nH]cn1)C(=O)N[C@@H](Cc1c[nH]cn1)C(=O)N[C@@H](Cc1c[nH]cn1)C(=O)N[C@@H](Cc1c[nH]cn1)C(=O)N[C@@H](Cc1c[nH]cn1)C(=O)O)[C@@H](C)O)[C@@H](C)O)C(C)C)[C@@H](C)O [CHIKV-43], the “n, molar ratio” value ([1]; HEPES buffer pH 7.5, 50 µM peptide injected into 10 µM NTF2L) is reported as 0.6 ± 0.002, the “M.W., molecular weight of the peptide–NTF2L complex” value (NTF2L domain of G3BP1 [2]) is reported as 314.1 ± 0.28 kDa and the “approximate M.W. of the peptide–NTF2L complex” value (NTF2L domain of G3BP1 [2]; rounded value of text) is reported as “approximately 310 kDa”. The “SEC peak / high-order oligomer formation with NTF2L” value (NTF2L domain of G3BP1 [3]) was “formed a stable peak” and the “interaction with endogenous G3BP1” value (endogenous G3BP1) was “obviously interact with G3BP1”.

For O=C(O[C@@H]1Cc2c(O)cc(O)cc2O[C@@H]1c1cc(O)c(O)c(O)c1)c1cc(O)c(O)c(O)c1 [Epigallocatechin gallate], the “effect on lung cancer cell growth” value (lung cancer cell) is listed as “inhibits lung cancer cell growth”.

For Nc1ncn([C@H]2C[C@H](O)[C@@H](CO)O2)c(=O)n1 [decitabine], the “inhibition of SARS-CoV-2 propagation” value (SARS-CoV-2) is given as “inhibit SARS-CoV-2 propagation”.

In the case of Cc1ccc(NC(=O)c2ccc(CN3CCN(C)CC3)cc2)cc1Nc1nccc(-c2cccnc2)n1 [imatinib], the “inhibition of SARS-CoV-2 propagation” value (SARS-CoV-2) is listed as “inhibit SARS-CoV-2 propagation”.

From PMC12077208 (mBio, 2025)
